Data as given in patent US20030203373A1 (priority 2002, published 2003).
“And” between values parts separate entries of the source, which are not always exact repeats. Equal values may be shown once.

Biological target: T1, ACE from pig kidney (Sus scrofa, UniProt F1RRW5)
T1 construct: 1 mU ACE from pig kidney (EC 3.4.15.1 (Sigma)); purchased Sigma; host or cells: pig kidney (tissue-derived enzyme)
T1 sequence (F1RRW5 34-1309): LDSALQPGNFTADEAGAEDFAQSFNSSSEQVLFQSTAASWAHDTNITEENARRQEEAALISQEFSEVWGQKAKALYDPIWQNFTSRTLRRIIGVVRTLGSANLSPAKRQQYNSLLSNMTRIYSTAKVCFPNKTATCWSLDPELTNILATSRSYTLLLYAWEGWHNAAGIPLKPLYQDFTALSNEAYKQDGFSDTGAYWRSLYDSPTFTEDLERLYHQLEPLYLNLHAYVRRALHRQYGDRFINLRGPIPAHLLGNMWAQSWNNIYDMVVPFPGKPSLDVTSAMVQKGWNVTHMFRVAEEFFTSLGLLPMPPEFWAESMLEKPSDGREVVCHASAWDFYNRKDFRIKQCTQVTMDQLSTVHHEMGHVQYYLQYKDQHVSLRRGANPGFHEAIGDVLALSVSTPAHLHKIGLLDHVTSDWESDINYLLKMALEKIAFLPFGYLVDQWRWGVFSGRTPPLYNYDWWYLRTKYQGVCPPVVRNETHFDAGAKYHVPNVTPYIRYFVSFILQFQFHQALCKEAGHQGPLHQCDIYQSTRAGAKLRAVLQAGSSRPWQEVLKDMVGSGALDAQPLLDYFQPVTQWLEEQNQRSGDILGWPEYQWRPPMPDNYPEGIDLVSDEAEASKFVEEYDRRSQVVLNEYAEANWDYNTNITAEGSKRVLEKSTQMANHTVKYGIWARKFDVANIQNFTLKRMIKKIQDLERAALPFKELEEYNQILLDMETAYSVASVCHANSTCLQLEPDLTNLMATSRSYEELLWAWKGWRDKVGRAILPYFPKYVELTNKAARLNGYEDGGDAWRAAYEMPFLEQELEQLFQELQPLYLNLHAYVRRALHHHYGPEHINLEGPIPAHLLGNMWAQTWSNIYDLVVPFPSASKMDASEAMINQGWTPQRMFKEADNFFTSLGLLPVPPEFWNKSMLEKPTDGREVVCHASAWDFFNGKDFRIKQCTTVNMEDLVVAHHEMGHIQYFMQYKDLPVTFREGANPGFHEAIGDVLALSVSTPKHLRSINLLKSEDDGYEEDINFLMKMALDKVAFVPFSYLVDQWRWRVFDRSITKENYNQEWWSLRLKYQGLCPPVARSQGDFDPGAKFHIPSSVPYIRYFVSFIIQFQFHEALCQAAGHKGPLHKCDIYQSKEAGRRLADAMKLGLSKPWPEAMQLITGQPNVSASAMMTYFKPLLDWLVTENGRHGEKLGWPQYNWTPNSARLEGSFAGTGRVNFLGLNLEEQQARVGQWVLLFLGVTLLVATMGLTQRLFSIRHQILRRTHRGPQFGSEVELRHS
Test: biochemical
Type: biochemical
Procedure, shortened: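 Pig kidney ACE (1 mU) in 25 mM HEPES, 0,3 M NaCl, pH 8,2 was mixed with inhibitor solutions (0,35-200 μM) and started with 2 mM hippuryl-histidyl-leucine solution. After 30 min at 22° C the reaction was stopped with NaOH and the product derivatized with ortho-phthalaldehyde for fluorescence. IC50 was read graphically from % inhibition curves.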

[1] = inhibitor 0.78125 μM, replicates A-D
[2] = inhibitor 1.5625 μM, replicates A-D
[3] = inhibitor 3.125 μM, replicates A-D
[4] = inhibitor 6.25 μM, replicates A-D
[5] = inhibitor 12.5 μM, replicates A-D
[6] = inhibitor 25 μM, replicates A-D
[7] = inhibitor 50 μM, replicates A-D
[8] = inhibitor 100 μM, replicates A-D
[9] = inhibitor 200 μM, replicates A-D

CC(C)C[C@H](NC(=O)[C@H](C)N)C(=O)N[C@@H](CO)C(=O)N1CCC[C@H]1C(=O)N[C@@H](CC(C)C)C(=O)N1CCC[C@H]1C(=O)N[C@@H](CCC(=O)O)C(=O)N[C@H](C(=O)N1CCC[C@H]1C(=O)N1CCC[C@H]1C(=O)O)C(C)C [Peptide S545]
IC50 (ACE from pig kidney, determined graphically, read-out: IC50-value (ACE inhibition)): 2400 nM
fluorescence reading (ACE Inhibitor Assay) (inhibitor 0.39 μM, replicates A-D): 811412 and 841911 and 876502 and 774338
% inhibition (ACE Inhibitor Assay) (inhibitor 0.39 μM, replicates A-D, 0.39 µM): 12.66% and 9.36% and 5.61% and 16.67%
fluorescence reading (ACE Inhibitor Assay) [1]: 726277 and 720995 and 719037 and 692816
inhibition at 0.78125 µM [1]: 21.9%
% inhibition (ACE Inhibitor Assay) (inhibitor 0.78125 μM, replicates A-D, 0.78125 µM): 22.45% and 22.66% and 25.5%
fluorescence reading (ACE Inhibitor Assay) [2]: 541353 and 551184 and 577933 and 551569
inhibition at 1.5625 µM [2]: 41.9%
% inhibition (ACE Inhibitor Assay) (inhibitor 1.5625 μM, replicates A-D, 1.5625 µM): 40.85% and 37.95% and 40.8%
fluorescence reading (ACE Inhibitor Assay) [3]: 405396 and 408086 and 447790 and 392263
inhibition at 3.125 µM [3]: 56.6%
% inhibition (ACE Inhibitor Assay) (inhibitor 3.125 μM, replicates A-D, 3.125 µM): 56.36% and 52.05% and 58.06%
fluorescence reading (ACE Inhibitor Assay) [4]: 251538 and 279216 and 263340 and 250076
inhibition at 6.25 µM [4]: 73.3%
% inhibition (ACE Inhibitor Assay) (inhibitor 6.25 μM, replicates A-D, 6.25 µM): 70.3% and 72.02% and 73.46%
fluorescence reading (ACE Inhibitor Assay) [5]: 174037 and 177324 and 175378 and 177772
inhibition at 12.5 µM [5]: 81.7%
% inhibition (ACE Inhibitor Assay) (inhibitor 12.5 μM, replicates A-D, 12.5 µM): 81.34% and 81.55% and 81.29%
fluorescence reading (ACE Inhibitor Assay) [6]: 108586 and 113328 and 113458 and 104078
inhibition at 25 µM [6]: 88.8%
% inhibition (ACE Inhibitor Assay) (inhibitor 25 μM, replicates A-D, 25 µM): 88.27% and 88.26% and 89.27%
fluorescence reading (ACE Inhibitor Assay) [7]: 53158 and 63009 and 54447 and 48696
inhibition at 50 µM [7]: 94.8%
% inhibition (ACE Inhibitor Assay) (inhibitor 50 μM, replicates A-D, 50 µM): 93.72% and 94.65% and 95.27%
fluorescence reading (ACE Inhibitor Assay) [8]: 28035 and 29130 and 30237 and 28568
inhibition at 100 µM [8]: 97.5%
% inhibition (ACE Inhibitor Assay) (inhibitor 100 μM, replicates A-D, 100 µM): 97.39% and 97.27% and 97.45%
fluorescence reading (ACE Inhibitor Assay) [9]: 17677 and 17238 and 18084 and 18937
inhibition at 200 µM [9]: 98.6%
% inhibition (ACE Inhibitor Assay) (inhibitor 200 μM, replicates A-D, 200 µM): 98.68% and 98.59% and 98.5%
fold higher dose necessary in the ACE-assay to reach the same effect as with Captopril (relative to Captopril): 1000 fold
